Data set [1] relates to L929 and VERO cell lines. As to the kind of experiment: MTT cytotoxicity assay. The data set is classed as cell-based, mouse; African green monkey. To be noted: 24 h, higher concentrations not reached due to limited solubility.
Data set [2] deals with C. albicans. As to the kind of experiment: Broth microdilution MIC/MFC, clinical isolate. The class given is cell-based. To be noted: Candida albicans, C. albicans clinical strain; for MFC: read-out: MFC; for MIC: read-out: MIC. An outline of the steps: (§1)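 Two-fold compound dilutions in RPMI 1640/MOPS (final 1000–0.0038 µg/ml, DMSO stocks) received clinical yeast at 0.5 McFarland. MIC was read spectrophotometrically as the lowest concentration with complete growth inhibition. MFC was the lowest concentration with no visible growth after well contents were spotted onto agar.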

In data set [3] the test system is C. krusei. As to the kind of experiment: Broth microdilution MIC/MFC, clinical isolate. The data set is classed as cell-based. To be noted: Pichia kudriavzevii, C. krusei clinical strain; for MFC: read-out: MFC; for MIC: read-out: MIC. An outline of the steps: as §1
For data set [4], the system named is C. guilliermondii. In words: Broth microdilution MIC/MFC, clinical isolate. The class given is cell-based. The note with it: Meyerozyma guilliermondii, C. guilliermondii clinical strain; for MFC: read-out: MFC; for MIC: read-out: MIC. An outline of the steps: as §1
Data set [5] concerns C. famata. In words: Broth microdilution MIC/MFC, clinical isolate. The class given is cell-based. To be noted: Debaryomyces hansenii, C. famata clinical strain; for MFC: read-out: MFC; for MIC: read-out: MIC. The essentials:
as §1

In data set [6] the test system is C. lusitaniae. In words: Broth microdilution MIC/MFC, clinical isolate. The class given is cell-based. To be noted: Clavispora lusitaniae, C. lusitaniae clinical strain; for MFC: read-out: MFC; for MIC: read-out: MIC. An outline of the steps: as §1
The test system of data set [7] is C. sake. In words: Broth microdilution MIC/MFC, clinical isolate. The data set is classed as cell-based. The note with it: Fermentozyma sake, C. sake clinical strain; for MFC: read-out: MFC; for MIC: read-out: MIC. The essentials:
as §1

Data set [8] relates to 6-Hz psychomotor seizures. As to the kind of experiment: 6-Hz test. To be noted: mice; for responders at 100 mg/kg: 100 mg/kg ip. The class given is in vivo, mouse. Here is the method: For in vivo tests that assessed anticonvulsant properties of the test compounds 3a-3j adult male Albino Swiss (CD-1) mice weighing between 18 and 22 g were used. The animals were housed in groups of ten mice per cage at room temperature of 22 ± 2 °C, under light/dark (12:12) cycle. The animals had free access to food and tap water before the experiments. The ambient temperature of the experimental room and humidity (50 ± 10%) were kept consistent throughout all the tests. For behavioral experiments the animals were selected randomly. Each experimental group consisted of 4-8 animals/dose. The experiments were performed between 9 AM and 2 PM. Immediately after the in vivo assay the animals were euthanized by cervical dislocation. All procedures were approved by the Local Ethics Committee of the Jagiellonian University in Krakow (34/2018, 1.02.2018)) and the treatment of animals was in full accordance with ethical standards laid down in respective Polish and EU regulations (Directive No. 86/609/EEC). For in vivo tests the compounds 3a-3j were prepared in 1% Tween 80 solution (POCH, Poland) and they were administered by the intraperitoneal route. Control mice received 1% Tween 80. Pentylenetetrazole (PTZ), pilocarpine hydrochloride and scopolamine butylbromide were provided by Sigma Aldrich (Poland). For the tests they were prepared in 0.9% saline (Polfa Kutno, Poland). PTZ and pilocarpine were administered 60 min after the test compound or vehicle. To assess anticonvulsant properties of the test compounds anticonvulsant screening was conducted. Four assays were used: PTZ, maximal electroshock seizure (MES), 6-Hz and pilocarpine tests. In these assays the dose of 100 mg/kg was chosen as a starting dose. If it turned out to be effective, a lower dose (30 mg/kg) was also tested. This test was performed according to (Barton et al. [2001]). It is an alternative electroshock paradigm that involves low-frequency (6 Hz), long-duration (3 s) electrical stimulation. Corneal stimulation (0.2 ms-duration monopolar rectangular pulses at 6 Hz for 3 s) was delivered by a constant-current device. During electrical stimulation mice were manually restrained and released into the observation cage immediately after current application. At the time of drug administration a drop of 0.5% tetracaine ([…] sterile solution, […] Pharmaceuticals Inc., USA) was applied into the eyes of all animals. Prior to the placement of corneal electrodes, a drop of 0.9% saline was applied on the eyes. In this model seizures manifest in 'stunned' posture associated with rearing, forelimb automatic movements and clonus, twitching of the vibrissae and Straub-tail. At the end of the seizure episode the animals resume their normal exploratory behavior. In this test protection against a seizure episode is considered as the end point and animals are considered to be protected if they resume their normal exploratory behavior within 10 s after electrical stimulation.

Setting [9] is: Mus musculus, read-out: X/Y number of mice protected (X) per number of mice tested (Y) (converted).

Converted amounts (≈) assume the structure as drawn.

`[N-]=[N+]=Nc1ccc(-c2csc(N/N=C/C3CC3)n2)cc1` [Compound 3i, (E)-4-(4-Azidophenyl)-2-(2-(cyclopropylmethylene)hydrazinyl)thiazole]: the “highest possible non-cytotoxic concentration” value in data set [1] came to 15.63 µg/mL. In addition, the MFC in data set [2] amounted to 15.6 µg/mL (≈ 54.9 µM); in data set [3], 7.81 µg/mL (≈ 27.5 µM); in data set [4] it was 15.6 µg/mL (≈ 54.9 µM); in data set [5] it was 7.81 µg/mL (≈ 27.5 µM); in data set [6], 1.95 µg/mL (≈ 6.86 µM); in data set [7], 7.81 µg/mL (≈ 27.5 µM). In addition, the MIC in data set [2] is 0.48 µg/mL (≈ 1.69 µM); in data set [3], 0.98 µg/mL (≈ 3.45 µM); in data set [4] it was 0.98 µg/mL (≈ 3.45 µM); in data set [5] it was 1.95 µg/mL (≈ 6.86 µM); in data set [6], 0.48 µg/mL (≈ 1.69 µM); in data set [7], 0.48 µg/mL (≈ 1.69 µM). Further, the responders at 30 mg/kg in data set [8] (Mus musculus, 30 mg/kg ip, read-out: X/Y number of mice protected (X) per number of mice tested (Y) (converted)) was 25%. In addition, the responders at 100 mg/kg in data set [8] (setting [9]) is 75%. Further, in data set [8] (100 mg/kg), the “animals protected from seizures” value was determined as 75%.
With `O=[N+]([O-])c1ccc(-c2csc(N/N=C/C3CC3)n2)cc1` [Compound 3j, (E)-2-(2-(Cyclopropylmethylene)hydrazinyl)-4-(4-nitrophenyl)thiazole], the “highest possible non-cytotoxic concentration” value in data set [1] was 31.25 µg/mL. Also, the MFC in data set [2] was 0.48 µg/mL (≈ 1.66 µM); in data set [3] it was 0.12 µg/mL (≈ 0.416 µM); in data set [4] it was 0.98 µg/mL (≈ 3.4 µM); in data set [5], 31.2 µg/mL (≈ 108 µM); in data set [6] it was 0.98 µg/mL (≈ 3.4 µM); in data set [7] it was 0.98 µg/mL (≈ 3.4 µM). Further, the MIC in data set [2] turned out to be 0.24 µg/mL (≈ 0.832 µM); in data set [3], 0.06 µg/mL (≈ 0.208 µM); in data set [4], 0.24 µg/mL (≈ 0.832 µM); in data set [5], 1.95 µg/mL (≈ 6.76 µM); in data set [6], 0.48 µg/mL (≈ 1.66 µM); in data set [7], 0.24 µg/mL (≈ 0.832 µM). The responders at 100 mg/kg in data set [8] (setting [9]) is 0%.

The record behind these values is article PMC6133161, “Thiazoles with cyclopropyl fragment as antifungal, anticonvulsant, and anti-Toxoplasma gondii agents: synthesis, toxicity evaluation, and molecular docking study” (Medicinal Chemistry Research, 2018).
